Measurements taken from article PMC6430684 (Cell chemical biology, 2019).

Biological target: HSP90α (Homo sapiens, UniProt P07900)
Assay: competitive fluorescence polarization with geldanamycin-FITC
Format: binding

- IC50: 29.5 nM
Compound: O=C1C=C(Nc2ccc3cnccc3c2)c2ccccc2C1=O [YZ129, 4-(isoquinolin-6-ylamino)naphthalene-1,2-dione]
